Results as given in US20250134874A1, “PHARMACEUTICAL FORMULATIONS COMPRISING 3-({[(4R)-7-{METHYL[4-(PROPAN-2-YL)PHENYL]AMINO}-3,4-DIHYDRO-2H-1-BENZOPYRAN-4-YL]METHYL}AMINO)PYRIDINE-4-CARBOXYLIC ACID” (TACHYON THERAPEUTICS, INC., priority 2021, published 2025).

Tested on: 301 cancer cell lines from different tumor types (OncoPanel; HD Biosciences)
Test: 2D cell viability inhibition assay (CellTiter-Glo) in cancer cell line panel
Format: cell-based
Set-up: key to AUC: AUC as fraction of the no-inhibition area (dose range × 0–100 % of control)
Conditions: for Emax: in %
Protocol: In a larger screening study, compound 1 was evaluated across a broad cancer cell line panel (OncoPanel; HD Biosciences) composed of 301 cancer cell lines from different tumor types.
2D cell viability inhibition assays were performed in multiwell plates seeded with cells from the panel. After seeding, the plates were cultured overnight in a humidified incubator at 37° C. to promote adherence. Assays were initiated in individual wells by adding either DMSO as a vehicle control, growth media as a blank, or serially diluted compound 1 (10 μM to 0.0005 μM with 1:3 serial dilution). Cultures were incubated for 168 hours after which the number of viable cells in each test well was assessed using the CellTiter-Glo® Luminescent Cell Viability Assay. Luminescence readouts were performed using an EnVision® Multilabel Reader and the compound 1 readouts were normalized to the DMSO control readouts, expressed as a percent of the control. Outliers were flagged out by visual inspection. Percent of control was plotted against the corresponding compound 1 concentration and the absolute IC50 value was determined using four-parameter logistic non-linear regression as the concentration where inhibition was 50% of the control. For maximum inhibition <50%, the absolute IC50 was reported as >10. In addition to EC50 and IC50, AUC was determined and was normalized to the area corresponding to theoretical no-inhibition (the rectangular area defined by the compound dose range and 0 to 100 in y). Emax was recorded as the minimum in y with the compound dose range. For those cell lines where Emax>40, EC50 was manually set to 10 μM. A hierarchical clustering algorithm based on Euclidean distance between the standardized input values and “Ward.D” method as implemented in R hclust function was used to visualize the compound 1 cellular potency data. The sensitive/moderate/resistant calls for each cell line was determined by visually inspecting the resulting clustering dendrogram. All the analyses were done in R Core Team.

CC(C)c1ccc(N(C)c2ccc3c(c2)OCC[C@H]3CNc2cnccc2C(=O)O)cc1 [Compound 1, 3-({[(4R)-7-{methyl[4-(propan-2-yl)phenyl]amino}-3,4-dihydro-2H-1-benzopyran-4-yl]methyl}amino)pyridine-4-carboxylic acid]
AUC (143B cell line): 0.3582 | Emax (143B cell line): 2.196 | AUC (647V cell line): 0.3912 | Emax (647V cell line): 10.18 | AUC (5637 cell line): 0.4857 | EC50 (5637 cell line): 0.00224 µM | IC50 (5637 cell line): 0.00611 µM | Emax (5637 cell line): 33.01 | AUC (7860 cell line): 0.5049 | IC50 (168 h, HS688AT, skin, NS): > 10 µM | IC50 (168 h, HS739T, breast, NS): > 10 µM | IC50 (168 h, HS839T, skin, NS): > 10 µM | IC50 (168 h, HS852T, skin, NS): > 10 µM | IC50 (168 h, HUH28, biliary tract, NS): > 10 µM | IC50 (168 h, KG1, haematopoietic and lymphoid tissue, acute myeloid leukaemia): > 10 µM | IC50 (168 h, KURAMOCHI, ovary, undifferentiated carcinoma): > 10 µM | IC50 (168 h, NMCG1, central nervous system, NS): > 10 µM | IC50 (168 h, SKMEL31, skin, NS): > 10 µM | IC50 (168 h, T24, urinary tract, transitional cell carcinoma): > 10 µM | IC50 (168 h, TE1, oesophagus, squamous cell carcinoma): > 10 µM | IC50 (168 h, TE8, oesophagus, squamous cell carcinoma): > 10 µM | AUC (A101D cell line): 0.4689 | Emax (A101D cell line): 20.46 | AUC (A204, soft tissue, NS, 168 hours): 0.7136 | AUC (A375 cell line): 0.4405 | Emax (A375 cell line): 19.51 | AUC (A549 cell line): 0.573 | AUC (A2058 cell line): 0.5694 | AUC (A2780 cell line): 0.1811 | AUC (ACHN cell line): 0.453 | AUC (AGS cell line): 0.3536 | Emax (AGS cell line): 14.1129 | AUC (ASPC1 cell line): 0.5812 | AUC (AZ521 cell line): 0.2875 | AUC (BFTC905 cell line): 0.3989 | Emax (BFTC905 cell line): 13.74 | AUC (BICR18 cell line): 0.619 | EC50 (BICR18 cell line): 0.187 µM | IC50 (BICR18 cell line): 0.194 µM | AUC (BICR22 cell line): 0.6829 | IC50 (BICR22 cell line): > 10 µM | AUC (BT20, breast, ductal carcinoma, 168 hours): 0.9117 | AUC (BT474, breast, ductal carcinoma, 168 hours): 0.7206 | AUC (BT549 cell line): 0.431 | Emax (BT549 cell line): 20.55 | AUC (BXPC3 cell line): 0.5738 | AUC (C2BBE1, large intestine, adenocarcinoma, 168 hours): 0.8303 | AUC (C32 cell line): 0.2532 | AUC (CAKI1 cell line): 0.5319 | Emax (CAKI1 cell line): 34.03 | AUC (CAL27, upper aerodigestive tract, squamous cell carcinoma, 168 hours): 0.8335 | AUC (CALU1, lung, squamous cell carcinoma, 168 hours): 1.217 | AUC (CALU3, lung, adenocarcinoma, 168 hours): 0.7277 | AUC (CALU6 cell line): 0.4595 | Emax (CALU6 cell line): 18.32 | AUC (CAOV3 cell line): 0.3908 | Emax (CAOV3 cell line): 19.3273 | AUC (CAPAN1 cell line): 0.6391 | AUC (CAPAN2, pancreas, ductal carcinoma, 168 hours): 0.8808 | AUC (CCFSTTG1, central nervous system, astrocytoma, 168 hours): 0.879 | AUC (CFPAC1 cell line): 0.5227 | Emax (CFPAC1 cell line): 29.22 | AUC (CHL1 cell line): 0.3493 | AUC (COLO205 cell line): 0.4833 | Emax (COLO205 cell line): 27.13 | AUC (COLO320HSR cell line): 0.2403 | AUC (COLO679 cell line): 0.502 | AUC (COLO680N cell line): 0.5311 | Emax (COLO680N cell line): 33.76 | AUC (COLO741 cell line): 0.4186 | Emax (COLO741 cell line): 18.78 | AUC (COLO829 cell line): 0.6557 | AUC (CORL279 cell line): 0.3155 | AUC (DAOY, central nervous system, NS, 168 hours): 0.9684 | AUC (DAUDI cell line): 0.5383 | Emax (DAUDI cell line): 25.4109 | AUC (DETROIT562 cell line): 0.5873 | Emax (DETROIT562 cell line): 36.51 | AUC (DLD1 cell line): 0.226 | AUC (DMS53, lung, small cell carcinoma, 168 hours): 0.7426 | AUC (DMS79 cell line): 0.3845 | AUC (DMS153 cell line): 0.6737 | AUC (DMS273 cell line): 0.4815 | AUC (DU145 cell line): 0.4324 | Emax (DU145 cell line): 18.16 | AUC (DV90 cell line): 0.3698 | Emax (DV90 cell line): 11.78 | AUC (ECGI10 cell line): 0.5683 | EC50 (ECGI10 cell line): ≥ 10 µM | IC50 (ECGI10 cell line): 0.0224 µM | AUC (FTC133 cell line): 0.4146 | Emax (FTC133 cell line): 22.3385 | AUC (G361, skin, NS, 168 hours): 1.044 | AUC (G401 cell line): 0.2508 | AUC (GAK cell line): 0.6649 | IC50 (GAK cell line): > 10 µM | AUC (GI1 cell line): 0.6237 | AUC (GP2D cell line): 0.506 | EC50 (GP2d, GP2D cell line): 0.0206 µM | IC50 (GP2d, GP2D cell line): 0.0262 µM | AUC (GRANTA519 cell line): 0.4686 | Emax (GRANTA519 cell line): 17.91 | AUC (HCC38, breast, ductal carcinoma, 168 hours): 0.9864 | AUC (HCC70 cell line): 0.4135 | Emax (HCC70 cell line): 13.85 | AUC (HCC78 cell line): 0.5315 | AUC (HCC95 cell line): 0.4072 | AUC (HCC827, lung, adenocarcinoma, 168 hours): 0.8814 | AUC (HCC1143 cell line): 0.6906 | AUC (HCC1187 cell line): 0.465 | Emax (HCC1187 cell line): 34 | AUC (HCC1419, breast, ductal carcinoma, 168 hours): 0.7201 | AUC (HCC1428, breast, NS, 168 hours): 0.7818
